Measured values from US20230148602A1, “BENZAMIDE COMPOUND AND HERBICIDE” (Nippon Soda Co., Ltd., priority 2020, published 2023).

What was measured:
Matricaria chamomilla = assay: Test Example 1 foliage treatment, weed killing rate; assay type: in vivo; conditions: foliar, 504 h, 250 g/ha active ingredient, foliage spray, after 3 weeks
Method: (§1) POA allylphenyl ether (4.1 parts by weight), POE-POP glycol (1 part by weight), POE sorbitan laurate (0.8 parts by weight), glycerin (2.6 parts by weight), dimethylformamide (65.9 parts by weight), N-methylpyrrolidone (5.1 parts by weight), cyclohexanone (15.4 parts by weight), and aromatic hydrocarbons (5.1 parts by weight) were mixed to obtain an emulsion.
(§2) The compound of the present invention (4 mg) was dissolved in this emulsion (100 μt) to obtain a test emulsion. POA means “polyoxyalkylene”, POE means “polyoxyethylene”, and POP means “polyoxypropylene”.
(§3) In a 150 cm^2 pot filled with soil, seeds of Digitaria ciliaris, Amaranthus retroflexus, Alopecurus myosuroides and Matricaria chamomilla were respectively sown and covered lightly with soil. Thereafter, they were grown in a greenhouse. When each plant grew to a plant height of 2 to 5 cm, the above test emulsion was diluted with water and sprayed on the foliage with a small sprayer at a spray water volume of 250 L per hectare (the amount of active ingredient of 250 g per hectare).
(§4) After 3 weeks, the above ground weights of weeds in the untreated and treated areas were measured for each plant, and the weed killing rate was calculated by the following calculation formula.
(§5) Weed killing rate (%)=[{(above ground weight of weeds in untreated area)−(above ground weight of weeds in treated area)}/(above ground weight of weeds in untreated area)]×100

Amaranthus retroflexus = assay: as above; assay type: in vivo; conditions: foliar, 504 h, 250 g/ha active ingredient, foliage spray, after 3 weeks
Method: as §1, §2, §3, §4, §5

Digitaria ciliaris = assay: as above; assay type: in vivo; conditions: foliar, 504 h, 250 g/ha active ingredient, foliage spray, after 3 weeks
Method: as §1, §2, §3, §4, §5

Alopecurus myosuroides [1] = assay: as above; assay type: in vivo; conditions: foliar, 504 h, 250 g/ha active ingredient, foliage spray, after 3 weeks
Method: as §1, §2, §3, §4, §5

Zea mays = assay: Test Example 2 foliage treatment, weed killing rate on maize (phytotoxicity); assay type: in vivo; conditions: foliage spray, after 4 weeks, crop (phytotoxicity to maize)
Method: (§6) In a 150 cm^2 pot filled with soil, seeds of Alopecurus myosuroides, Setaria faberi and Zea mays were sown and covered lightly with soil. Thereafter, they were grown in a greenhouse. When Alopecurus myosuroides and Setaria faberi grew to a plant height of 2 to 5 cm and Zea mays grew to 30 to 35 cm, the test emulsion obtained in Test Example 1 was diluted with water and sprayed on the foliage with a small sprayer at a spray water volume of 250 L per hectare (the amount of active ingredient of 250 g, 63 g, or 16 g per hectare). Also for the compound represented by the formula (B) (Compound No. B-1), a test emulsion was obtained in the same manner as in Test Example 1, and Test Example 2 was carried out using the emulsion. After 4 weeks, the above ground weights of weeds in the untreated and treated areas were measured for each plant, and the weed killing rate was calculated by the following calculation formula. Weed killing rate (%)=[{(above ground weight of weeds in untreated area)−(above ground weight of weeds in treated area)}/(above ground weight of weeds in untreated area)]×100

Setaria faberi = assay: Test Example 2 foliage treatment, weed killing rate; assay type: in vivo; conditions: foliage spray, after 4 weeks
Method: as §6

Alopecurus myosuroides [2] = assay: as above; assay type: in vivo; conditions: foliage spray, after 4 weeks
Method: as §6

Structure (SMILES)	melting point [°C]	pest or weed control at 250 g/ha (Matricaria chamomilla) [%]	pest or weed control at 250 g/ha (Amaranthus retroflexus) [%]	pest or weed control at 250 g/ha (Digitaria ciliaris) [%]	pest or weed control at 250 g/ha (Alopecurus myosuroides [1]) [%]	further results
CC(=O)C(=O)Nc1c(Br)cc(F)c(C(=O)Nc2nnnn2C)c1C [A-16]	221 to 223	90	70	–	–	–
Cc1c(NC(=O)C(=O)N2CCCC2)c(Br)cc(F)c1C(=O)Nc1nnnn1C [A-14]	275 to 278	–	80	–	–	–
CCN(C)C(=O)C(=O)Nc1c(Br)cc(F)c(C(=O)Nc2nnnn2C)c1Cl [A-8]	233 to 235	100	100	70	100	–
Cc1c(NC(=O)C(=O)N2CCOCC2)c(Br)cc(F)c1C(=O)Nc1nnnn1C [A-7]	244 to 246	–	70	–	–	–
CCN(C)C(=O)C(=O)Nc1c(Br)cc(F)c(C(=O)Nc2nnnn2C)c1C [A-2]	191 to 194	100	100	100	100	–
CCN(CC)C(=O)C(=O)Nc1c(Br)cc(F)c(C(=O)Nc2nnnn2C)c1Cl [A-9]	220 to 223	100	80	70	100	–
CON(C)C(=O)C(=O)Nc1c(Br)cc(F)c(C(=O)Nc2nnnn2C)c1C [A-17]	212 to 215	–	–	–	–	–
Cc1c(NC(=O)C(=O)N(C)C)c(Br)cc(F)c1C(=O)Nc1nnnn1C [A-1, N^1-(6-bromo-4-fluoro-2-methyl-3-((1-methyl-1H-tetrazol-5-yl)carbamoyl)phenyl)-N^2,N^2-dimethyloxalamide]	–	100	100	100	100	–
Cc1c(NC(=O)C(=O)N(C)CC(F)(F)F)cccc1C(=O)Nc1nnnn1C [A-12]	104 to 107	–	–	–	–	–
Cc1c(NC(=O)C(=O)N(C)CC(F)(F)F)c(Br)cc(F)c1C(=O)Nc1nnnn1C [A-3]	–	100	100	100	100	Weed killing rate Zea mays (Zea mays; 16 g/ha active ingredient): 0%; Weed killing rate Zea mays (Zea mays; 63 g/ha active ingredient): 0%; Weed killing rate Zea mays (Zea mays; 250 g/ha active ingredient): 30%; Weed killing rate Setaria faberi (Setaria faberi; 16 g/ha active ingredient): 50%; Weed killing rate Setaria faberi (Setaria faberi; 63 g/ha active ingredient): 100%; Weed killing rate Setaria faberi (Setaria faberi; 250 g/ha active ingredient): 100%; Weed killing rate Alopecurus myosuroides (Alopecurus myosuroides [2]; 16 g/ha active ingredient): 80%; Weed killing rate Alopecurus myosuroides (Alopecurus myosuroides [2]; 63 g/ha active ingredient): 100%; Weed killing rate Alopecurus myosuroides (Alopecurus myosuroides [2]; 250 g/ha active ingredient): 100%
CCOC(=O)C(=O)Nc1c(Br)cc(F)c(C(=O)Nc2nnnn2C)c1C [A-15]	154 to 157	–	–	–	–	–
CN(CC(F)(F)F)C(=O)C(=O)Nc1c(Br)cc(F)c(C(=O)Nc2nnnn2C)c1Cl [A-10]	243 to 246	100	100	–	70	–
Cc1c(NC(=O)N(C)CC(F)(F)F)c(Br)cc(F)c1C(=O)Nc1nnnn1C [B-1, reference compound]	–	–	–	–	–	Weed killing rate Zea mays (Zea mays; 16 g/ha active ingredient): 20%; Weed killing rate Zea mays (Zea mays; 63 g/ha active ingredient): 30%; Weed killing rate Zea mays (Zea mays; 250 g/ha active ingredient): 90%; Weed killing rate Setaria faberi (Setaria faberi; 16 g/ha active ingredient): 20%; Weed killing rate Setaria faberi (Setaria faberi; 63 g/ha active ingredient): 50%; Weed killing rate Setaria faberi (Setaria faberi; 250 g/ha active ingredient): 100%; Weed killing rate Alopecurus myosuroides (Alopecurus myosuroides [2]; 16 g/ha active ingredient): 40%; Weed killing rate Alopecurus myosuroides (Alopecurus myosuroides [2]; 63 g/ha active ingredient): 50%; Weed killing rate Alopecurus myosuroides (Alopecurus myosuroides [2]; 250 g/ha active ingredient): 90%
CCN(CC)C(=O)C(=O)Nc1c(Br)cc(F)c(C(=O)Nc2nnnn2C)c1C [A-13]	198 to 201	100	100	90	100	–
Cc1c(NC(=O)C(=O)N(C)C2CC2)c(Br)cc(F)c1C(=O)Nc1nnnn1C [A-6]	188 to 192	100	100	80	90	–
COCCN(C)C(=O)C(=O)Nc1c(Br)cc(F)c(C(=O)Nc2nnnn2C)c1C [A-5]	179 to 181	–	80	80	70	–
Cc1c(C(=O)Nc2nnnn2C)ccc(Br)c1NC(=O)C(=O)N(C)CC(F)(F)F [A-11]	204 to 206	100	100	100	100	–
Cc1c(C(=O)Nc2nnnn2C)ccc(C(F)(F)F)c1NC(=O)C(=O)N(C)CC(F)(F)F [A-18]	190 to 193	–	–	–	–	–
